Where a SMILES comes first, the peptide text is derived from it. Bridges are numbered along the chain shown (N, C = ends). Roman numbers before positions name the chains, in order.
How the values were obtained:
[1] = system: biotinylated 13-residue peptides (A-I) spanning the C-terminal region of MSP2; assay: Fine specificity of antisera by peptide array ELISA (peptides A-I); type: in vivo, mouse; settings: individual sera of mice immunised with peptide-KLH conjugate or MSP2 mix, diluted 1:1000; indirect ELISA; peptides C-D span 9H4 epitope, E-G span 4D11 epitope
Method: Peptide was conjugated to maleimide-activated KLH (Sigma-Aldrich) following the manufacturer’s protocol. Briefly, 1 mg of each peptide was mixed with 1 mg KLH in the provided buffer for a 200-fold molar excess of peptide to carrier protein. The reaction mixture was degassed under nitrogen and mixed at room temperature (RT) for 2 h. Any unreacted peptide was removed by dialysis against PBS using a 10 kDa cut-off membrane. The extent of conjugation was determined using Ellman’s reagent. Peptide-KLH conjugate stock solution was stored at 4 °C until further use. Prior to immunisation, peptide-KLH conjugates were diluted to 1 mg/mL in PBS and formulated with Montanide ISA720 at an antigen:adjuvant ratio of 3:7 and a final concentration of 0.3 mg/mL. The 3D7 + FC27 MSP2 mix was formulated using 0.15 mg/mL of each allelic form. Female C57BL/6 mice (n = 6 per group) were inoculated subcutaneously with 100 µL containing 30 µg of antigen at weeks 0, 4 and 8, then euthanised at week 10. Sera were collected and stored at −80 °C.
(§1) To determine peptide-KLH binding to 4D11 and 9H4, Maxisorp 96-well microtitre plates (Nunc, Rochester, NY, USA) were coated overnight at 4 °C with 2 µg/mL peptide-KLH in PBS. The plates were blocked with 1% BSA in PBS for 1 h before adding 100 µL of 4D11 and 9H4 IgG in eleven half log10 serial dilutions starting from stock at 1 µg/mL. After 1 h incubation at 4 °C and washing, antigen-bound antibodies were detected with goat anti-mouse IgG (1:2000 dilution) and freshly prepared 2,2-azinobis(3-ethylbenzthiazolinesulfonic acid (ABTS) substrate (1 mm) in citric acid buffer, pH 4.2, containing […]. The absorbance was read at 405 nm using a microplate reader. For determination of peptide-specific antibody titres, peptide-BSA conjugate was coated on the plate at 2 µg/mL. Individual mouse sera were added at a starting dilution of 1000-fold with six half log10 serial dilutions. Endpoint titres were taken as the x-axis intercept of the dilution curve at an absorbance value of three standard deviations (s.d.) greater than OD405 for naïve mouse serum. The fine specificities of the antisera were determined by ELISA using an array of nine biotinylated 13-residue peptides (A-I), which overlap by 2 or 3 residues and spanned the C-terminal region of MSP2 [11, 13]. Maxisorp 96-well microtitre plates (Nunc) were coated overnight at 4 °C with 1 µg/mL streptavidin in PBS. The plates were blocked with 1% BSA in PBS for 2 h before adding 1:500 biotinylated peptides. Individual sera samples were diluted 1:1000 in blocking solution before addition to the peptide array. Antibody was detected with the same protocol as mentioned above.
To characterise the response against these dimeric peptides further, the specificity of the induced antibodies was determined by indirect ELISA using an array of nine biotinylated peptides that spanned the epitopes recognised by the 4D11 and 9H4 mAbs (peptides A-I) (Table 3). Peptides C and D spanned the 9H4 epitope, whilst peptides E to G spanned the 4D11 epitope. […] However, the response against MSP2 was largely dominated by a single mouse in the group.

[2] = system: FC27 (D10 clone) merozoites; assay: Merozoite ELISA with pooled mouse sera, FC27 merozoites; type: in vivo, P. falciparum; settings: pooled sera of immunised mice, two-fold dilutions from 1:500; merozoites 1 × 10^7/well; OD 450 nm; rank order in words
Method: (§2) The reactivity of mouse polyclonal antibodies with merozoites was determined by ELISA using merozoites from both the 3D7 and FC27 (D10 clone) strains of P. falciparum. The parasites were cultured in human erythrocytes at a haematocrit of 3% in RPMI media supplemented with […]. Viable merozoites were isolated as described previously. Highly synchronised late-stage schizonts were magnet-purified via a MACS magnet separation column (Miltenyi Biotec, Macquarie Park, Australia) and treated with E64 protease inhibitor (ThermoFisher Scientific, Scoresby, Australia) until mature merozoites were formed. Merozoites were released forcing them through a 1.2 µm filter.
Purified whole merozoites were resuspended in PBS supplemented with a cocktail of protease inhibitors (Roche, Castle Hill, Australia). Isolated merozoites were used to coat Nunc Maxisorp™ plates at 1 × 10^7/well and incubated overnight at 4 °C. The plates were then blocked with 1% casein in PBS at 37 °C for 2 h (or overnight at 4 °C). Pooled sera samples were added to wells at two-fold serial dilution in duplicate with a starting dilution of 1:500 and incubated at RT for 1 h. The plates were further incubated with HRP-conjugated goat anti-mouse IgG antibody diluted at 1:1000 in 0.1% casein in PBS at RT for 1 h. The plates were washed six times with PBS between each incubation step. […] The OD was measured at 450 nm. […]

3D7 merozoites = assay: Merozoite ELISA with pooled mouse sera, 3D7 merozoites; type: in vivo, P. falciparum; settings: pooled sera of immunised mice, two-fold dilutions from 1:500; merozoites 1 × 10^7/well; OD 450 nm; rank order in words
Method: as §2
Purified whole merozoites were resuspended in PBS supplemented with a cocktail of protease inhibitors (Roche, Castle Hill, Australia). Isolated merozoites were used to coat Nunc Maxisorp™ plates at 1 × 10^7/well and incubated overnight at 4 °C. The plates were then blocked with 1% casein in PBS at 37 °C for 2 h (or overnight at 4 °C). Pooled sera samples were added to wells at two-fold serial dilution in duplicate with a starting dilution of 1:500 and incubated at RT for 1 h. The plates were further incubated with HRP-conjugated goat anti-mouse IgG antibody diluted at 1:1000 in 0.1% casein in PBS at RT for 1 h. The plates were washed six times with PBS between each incubation step. Finally, 3,3′,5,5′-tetramethylbenzidine (TMB) substrate (Thermo Fisher Scientific, Scoresby, Australia) was added to the wells for the development of colour for 15 min and the reaction was stopped with 1 M sulfuric acid. The OD was measured at 450 nm.
The ability to induce an immune response that can recognise parasite MSP2 is essential in the design of an MSP2-based peptide vaccine. We isolated merozoites from both 3D7 and FC27 (D10 clone) strains of P. falciparum, coated them on ELISA plates and probed them with sera from the immunised mice (Figure 6). mAb 4D11 and the MSP2 mix pre-bleed were also included as positive and negative controls, respectively.

4D11 IgG = assay: ELISA binding of 4D11 IgG against BSA-peptide conjugates; set-up: species or system mouse; settings: peptide maleimide-conjugated to BSA coated on plate
Method: as §1, with “To determine peptide-KLH binding to 4D11 and 9H4, Maxisorp 96-well microtitre plates (Nunc, Rochester, NY, USA) were coated overnight at 4 °C with 2 µg/mL peptide-KLH in PBS.” left out, “Maxisorp 96-well microtitre plates (Nunc) were coated overnight at 4 °C with 1 µg/mL streptavidin in PBS. The plates were blocked with 1% BSA in PBS for 2 h before adding 1:500 biotinylated peptides. Individual sera samples were diluted 1:1000 in blocking solution before addition to the peptide array.” left out
Anti-peptide antibody titres in the sera of immunised mice were determined using ELISA plates coated with the corresponding peptide-bovine serum albumin (BSA) conjugates. […]

In the case of `CC(=O)N[C@@H](CC(N)=O)C(=O)N[C@@H](CCCCN)C(=O)N[C@@H](CCC(=O)O)C(=O)N[C@@H](CC(N)=O)C(=O)N[C@@H](CSSC[C@H](NC(=O)[C@H](CC(N)=O)NC(=O)[C@H](CCC(=O)O)NC(=O)[C@H](CCCCN)NC(=O)[C@H](CC(N)=O)NC(C)=O)C(=O)NCC(=O)N[C@@H](C)C(=O)N[C@@H](C)C(=O)N[C@@H](CS)C(N)=O)C(=O)NCC(=O)N[C@@H](C)C(=O)N[C@@H](C)C(N)=O` [Peptide D1] (I: Ac-NKENCGAAC-NH2 / II: Ac-NKENCGAA-NH2; disulfide I:5-II:5), the “specificity of the induced antibodies (peptide array A-I)” value [1] was “almost exclusively directed to the 4D11 epitope”, the “reactivity of pooled sera with FC27 merozoites” value [2] was “weak reactivity” and the “reactivity of pooled sera with 3D7 merozoites” value (3D7 merozoites) was “weak reactivity”.
In the case of “SKWICANRSVCPI [non-relevant peptide maleimide-conjugated to BSA, linker control]”, the “4D11 IgG binding to BSA-peptide conjugate” value (4D11 IgG) was “no 4D11 IgG binding”.

Source: publication PMC8402609, “Guiding the Immune Response to a Conserved Epitope in MSP2, an Intrinsically Disordered Malaria Vaccine Candidate” (Vaccines, 2021)
